From patent US7271198B2, “Method of treating autoimmune diseases” (Wake Forest University, priority 2000, dated 2007)
Values joined by “and” are separate entries in the source; they are usually repeats but may differ in a detail not shown here. Equal entries are not always repeated.

What was measured:
[1] = tested on: MRL/lpr mice; assay: In vivo TSA in 26 week old MRL/lpr mice (5 mg/kg s.c. daily), proteinuria; set-up: species or system mouse
Source text: The effect of TSA on proteinuria and nitric oxide secretion and increased survival in 26 week old MRL/lpr mice was examined. In this age group, MRL/lpr mice developed full-blown disease with evidence of proliferative immune-complex-mediated glomerulo-nephritis, vasculitis, arthritis, and massive lymphadenopathy. Most of the mice expired by the age of 30 weeks. […] Urine was collected for a 24 hr time period on days 0, 7 and 14, and measured for protein and nitric oxide. Toxicity of TSA is being assessed by monitoring body weight, infection, abnormal behavior and survival of treated mice.

[2] = tested on: IL-10 mRNA; assay: IL-10 mRNA in MRL/lpr splenocytes; type: cell-based, mouse
Protocol: In investigating whether TSA down-regulates IL-10 mRNA, MRL/lpr splenocytes were treated with increasing concentrations of TSA. The heightened, constitutive expression of IL-10 mRNA confirms previous findings (FIGS. 11A & 11B, lane 1). […] To address whether TSA and SAHA down-regulate LPS- and IFN-γ induced IL-10 transcript, splenocytes from 10-wk old MRL/lpr mice were treated in the absence or presence of TSA or SAHA for 18 hr before LPS and IFN-γ stimulation for 6 or 18 hr.

[3] = tested on: acetylated H3 and H4 histones; assay: Immunoblot of acetylated H3 and H4 histones in MRL/lpr splenocytes; type: cell-based, mouse; details: 18 hr exposure
Source text: One mechanism by which HDIs suppress transcription of cytokine genes in MRL/lpr splenocytes may be by increasing accumulation of acetylated histones which may result in chromatin remodeling. The accumulation of acetylated histones H3 and H4 in HDI-treated splenocytes was quantified to test this hypothesis. FIG. 12 is an immunoblot analysis of the acetylation levels of H3 and H4 histones.

[4] = tested on: TGF-β1 mRNA; assay: PCR of TGF-β1 mRNA in SLE and control T cells / PBMCs; type: cell-based, human
Protocol: Gene expression of TGF-β1 was tested to determine if the gene expression is suppressed by deacetylation of histones in SLE. In this determination, SLE PBMCs or isolated T cells were treated with the histone deacetylase inhibitors (HDIs), TSA or SAHA, for 18hr. […] Subsequently, semi-quantitative PCR was performed to determine the amounts of […] transcripts in SLE and control T cells treated with vehicle or TSA (1000 ng/ml). […] There is no change in GAPDH transcript in normal and SLE T cells after treatment of HDIs. Increased TGF-β1 transcript was associated with a subsequent increase in TGF-β1 protein secretion by SLE PBMCs. When compared to vehicle treated PBMCs, total TGF-β1 protein in culture supernatants from SLE PBMCs increased by approximately 30%. In contrast, there was no increase in total TGF-β1 secretion in TSA treated cells in normal healthy controls. Similar results may be obtained by SAHA.

[5] = tested on: CD154 transcript; assay: RT-PCR of CD154 transcript in SLE T cells; type: cell-based, human
Source text: Because SLE T cells are often activated (D. T. Y. Yu et al., J. Exp. Med. 151, 91 (1980).), the up-regulation of CD154 and IL-10 and down-regulation of IFN-γ may reflect skewed gene expression due to enhanced recruitment of HDACs to the promoters of these genes. The resulting disequilibrium of acetylation might be expected to alter the chromatin structure of the promoters (R. D. Komberg and Y. Lorch, Curr. Opin. Gen. Dev. 9, 148 (1999)), thereby activating previously silenced genes while repressing expressed genes. To determine if TSA can down-regulate CD154 transcript expression, T cells from eight SLE subjects were treated with increasing concentrations of TSA over 18 hr.
T cells were cultured in the absence or presence of increasing concentrations of TSA for 18 hr in 5% CO2 at 37° C. RNA was isolated, cDNAs were prepared, and RT-PCR was performed as previously detailed (D. Laxminarayana, et al., J. Clin. Invest. 92, 2207 (1993)). The primers used were: […]
The reaction mixtures were subjected to 30 cycles of denaturation (94° C., 1 min) and annealing for 1 min at 53° C. (CD154), […] (GAPDH) and 55° C. (IL-10 and IFN-γ). Extension was for 2 min at 72° C. with a final extension of 7 min at 72° C. using a DNA thermal cycler (Perkin-Elmer).
When SLE T cells were activated with phorbol myristate acetate (PMA) and ionomycin (IO), CD154 mRNA content increased 100%, peaked at 3 hr, and waned thereafter (FIGS. 1C and 1D).

[6] = tested on: acetylated H3 and H4 histones; assay: Western immunoblot of acetylated H3 and H4 histones in SLE PBMCs; type: cell-based, human; details: 1000 ng/ml TSA or 20 μM SAHA, 18 hr
Protocol: The effect of TSA and SAHA was examined to determine if HDIs induce accumulation of acetylated histones in SLE PBMCs on the level of histone acetylation in SLE PBMCs. Following culture of PBMCs in the presence of vehicle, 1000 ng/ml TSA or 20 μM SAHA for 18 hr, histones were isolated.

[7] = tested on: IFN-γ protein; assay: IFN-γ protein production by SLE T cells (ELISA); type: cell-based, human; details: SLE T cells activated with PMA+IO 24 hr in presence of TSA; P=0.011
Protocol: To determine whether TSA could down-regulate IL-10, a dose-response analysis was performed. […] However, when SLE T cells were cultured in the presence of TSA for 18 hr, no detectable IL-10 transcripts were identified (FIG. 2C, lanes 3, 6, 9). When IL-10 transcripts from all eight SLE subjects were quantified relative to GAPDH transcripts, TSA inhibited expression of IL-10 mRNA by 71% (FIG. 2D; P=0.029). […] IL-10 and IFN-γ protein production were quantified by ELISA (R & D Systems, Minneapolis, Minn.). […] Thus, like CD154, TSA was able to block expression of IL-10 transcript, abolishing IL-10 production by SLE T cells.
When T cells were activated with PMA+IO for 24 hr, IFN-γ production increased about 24-fold. However, activation of T cells in the presence of TSA further enhanced IFN-γ output by >12-fold (P=0.011) (FIG. 3C).

CC(/C=C/C(=O)NO)=C\[C@@H](C)C(=O)c1ccc(N(C)C)cc1 [TSA, Trichostatin A]
proteinuria in day 7 and day 14 compared to day 0 ([1]; 26 week old MRL/lpr mice, 5 mg/kg TSA s.c. daily, in comparison to vehicle): less proteinuria
Proteinuria, DAY 0 ([1]; individual 26 week old MRL/lpr mice of TSA group, day 0 (baseline), 24 hr urine): 964 µg/day and 10 µg/day and 16689 µg/day and 213 µg/day and 14420 µg/day and 107 µg/day and 5 µg/day
Proteinuria, DAY 7 ([1]; individual 26 week old MRL/lpr mice, 5 mg/kg TSA s.c. daily, day 7, 24 hr urine, 5 mg/kg): 340 µg/day and 4.6 µg/day and 274 µg/day and 54 µg/day and 4701 µg/day and 80 µg/day and 9 µg/day
Proteinuria, DAY 14 ([1]; individual 26 week old MRL/lpr mice, 5 mg/kg TSA s.c. daily, day 14, 24 hr urine, 5 mg/kg): 242 µg/day and 4.3 µg/day and 865 µg/day and 82 µg/day and 3081 µg/day and 25 µg/day and 10 µg/day
TSA dose that down-regulated IL-10 mRNA ([2]; MRL/lpr splenocytes, constitutive expression): 300 ng/mL
LPS- and IFN-γ induced IL-10 mRNA ([2]; splenocytes from 10-wk old MRL/lpr mice pretreated 18 hr, stimulated 6 or 18 hr): no detectable IL-10 mRNA
accumulation of acetylated H3 and H4 histones [3]: marked increase
increase in TGF-β1 transcript ([4]; SLE PBMCs exposed to TSA and SAHA (summary statement)): eight-fold
induction of TGF-β1 mRNA compared to vehicle treated cells ([4]; SLE T cells, 1000 ng/ml TSA, 18 hr, real time PCR): 8 fold
TGF-β1 mRNA levels, semi-quantitative PCR ([4]; SLE T cells, TSA 1000 ng/ml): increased
TGF-β1 mRNA change ([4]; SLE T cells, TSA concentrations to 500 ng/ml): modest increase
up-regulation of CD154 transcript on PMA+IO activation ([5]; SLE T cells preincubated with TSA 18 hr (1000 ng/ml), then PMA+IO to 24 hr, vs cells not exposed, P<0.001): significantly reduced
GAPDH mRNA expression ([5]; SLE T cells, increasing TSA): does not modify
maximal inhibition of CD154 transcript ([5]; SLE T cells, increasing TSA (0–1000 ng/ml), 18 hr, relative to GAPDH): 60%
accumulation of acetylated H3 and H4 histones [6]: induced the accumulation
further enhancement of IFN-γ output [7]: > 12 fold
